From patent US20200352889A1, “CYSTATHIONINE COMPOSITIONS AND METHODS OF TREATMENT FOR HEALTH CONDITIONS” (THE REGENTS OF THE UNIVERSITY OF COLORADO, A BODY CORPORATE, priority 2011, published 2020)
Residues, ends and D or L forms follow the SMILES beside them. *: point of attachment. Cbz = O=C(OCc1ccccc1)*; CH2F = FC*

Columns and labels:
[1] = system: A293AD kidney cells; experiment: Thapsagargin-induced cell death, LDH release, A293AD kidney cells; assay type: cell-based, human
Method: It was previously shown that cystathionine can protect against ER stress induced cell death induced by the glycosylation inhibitor tunicamycin. In order to investigate if this protective effect was limited to tunicamycin, it was investigated whether cystathionine (1 mM) could protect A293AD kidney cells against ER stress induced cell death mediated by the calcium metabolism inhibitor compound thapsagargin (1 uM). Cell death was monitored by measuring LDH release into culture media. In order to investigate if cystathionine was simply blocking apoptosis, the effect of thapsagargin in the presence of the known apoptosis inhibitor Z-VAD-FMK was investigated. […] While it is not necessary to understand the mechanism of action, it is believed that 1.

[2] = system: HepG2 cells; experiment: Tunicamycin or thapsagargin induced cell death in HepG2 cells, comparison with Z-VAD-FMK; assay type: cell-based, human; details: p>0.05 for Z-VAD-FMK
[3] = system: 293AD cells; experiment: Tunicamycin-induced cell death, LDH release and phase-contrast, 293AD cells; assay type: cell-based, human
Method: (§1) Cells were seeded in triplicate at ˜75% confluence and pre-treated with either PPG) (5 mM), Cystathionine (1 mM) or with just complete media (DMEM, 10% FBS) as a control. After 24 hr pre-treatment, cells looked normal, with minimal floating cells. Fresh media with 1% FBS was then added to each well, the cells were further treated with Tm (either 5 or 10 ug)/ml. After 18 hr. treatment with Tunicamycin, cells were photographed under phase-contrast with a Zeiss Axiovert 25 microscope for evidence of dead floating cells. Cells from the group treated solely with tunicamycin became strikingly hyper-refringent, detached from the substratum and floated in the media. […] To further evaluate a role for cystathionine in resisting the induction of cell death by tunicamycin, cell lysis was quantified by assaying lactate dehydrogenase (LDH) release. The enzyme activity was determined spectrophotometrically and the amount of enzyme leak was expressed as a percentage of the LDH activity observed in untreated control cells.
HepG2, 293AD and a23 cells were seeded in triplicate at ˜75% confluence and were pre-treated with either propargylglycine (PPG) (5 mM) or cystathionine (5 mM) in complete media (DMEM, 10% FBS). After 24 hours, fresh media with 1% FBS was added to each well. Cells were then further treated with tunicamycin (either 5 or 10 ug/ml) for 18 hr treatment. Cells were subsequently photographed under phase-contrast with a Zeiss Axiovert 25 microscope for evidence of dead floating cells. To quantify cell death the media supernatant was collected for LDH release assay using a kit from Roche Applied Science (Cat.No.11 644 793 001) according to the manufacturer's standard protocol where cytotoxicity (%)=((experimental value-low control/(high control-low control))×100.
as §1, with “24 hr.” for “24 hr”

[4] = system: HepG2 cells; experiment: Tunicamycin-induced cell death, LDH release, HepG2 cells; assay type: cell-based, human; details: data not shown
Method: as §1, with “control cells. […]” for “control cells.”
(§2) Cells were seeded in triplicate at ˜75% confluence and pre-treated with either PPG) (5 mM), Cystathionine (1 mM) or with just complete media (DMEM, 10% FBS) as a control. […] To further evaluate a role for cystathionine in resisting the induction of cell death by tunicamycin, cell lysis was quantified by assaying lactate dehydrogenase (LDH) release. […]

[5] = system: a23 cells; experiment: Tunicamycin-induced cell death, LDH release, transsulfuration negative a23 cells; assay type: cell-based, Chinese hamster; details: CBS and CGL negative, p<0.0001
Text: However, examination of a direct effect of exogenously added cystathionine is not currently possible in a whole animal model because of complications with the compounds solubility and rapid kinetics of its excretion. In order to investigate the direct effects of cystathionine against ER stress-induced cell death, the cytotoxicity of tunicamycin in the human embryonic kidney cell line 293AD and the human hepatoma cell line HepG2 in the presence and absence of both PPG and exogenously added cystathionine was examined. Preliminary experiments confirmed that both of these cell lines express both CBS and CGL (data not shown). In order to investigate the possible protective effects of cystathionine in the absence of transsulfuration, these experiments were repeated with the CBS and CGL negative Chinese hamster fibroblast line a23 (6).
as §2, with “release. The enzyme activity was determined spectrophotometrically and the amount of enzyme leak was expressed as a percentage of the LDH activity observed in untreated control cells.” for “release.”

[6] = system: Grp78, Grp94, GADD153; experiment: Northern and Western blotting of UPR induction in 293AD cells; assay type: cell-based, human
Method: To further assess the effect of cystathionine upon induction of the UPR and GADD153 by ER stress Northern and Western blotting experiments were performed.
Immunoblot analysis of total cell lysates was performed as described previously (4,14). Briefly, following incubation with the appropriate primary and horseradish peroxidase-conjugated secondary antibodies (Affinity Biologicals, Ancaster, ON, Canada) membranes were developed using the Renaissance® Western Blot Chemiluminescence Reagent Kit, (Perkin Elmer, Woodbridge, ON, Canada). Proteins were transferred on a nitrocellulose membrane, and probed with anti-KDEL monoclonal antibody, which recognizes Hsp70, GRP78 and GRP94 that was purchased from Stressgen Biotechnologies (SPA-827) or anti GADD153 (Santa Cruz Biotech #SC-7351). Anti-β-Actin monoclonal antibody (Sigma) was used as a loading control.
Total RNA was isolated from 293AD cells using the RNeasy® total RNA kit (Qiagen, Santa Clarita, Calif.) and resuspended in diethylpyrocarbonate (DEPC)-treated water. Quantification and purity of the RNA was assessed by A260/A280 absorption, and RNA samples with ratios greater than 1.6 were stored at […] for further analysis. Total RNA (10 μg/lane) was fractionated on 2.2 mol/L formaldehyde/1.2% agarose gels and transferred overnight onto Zeta-Probe® GT nylon membranes (Bio-Rad, Toronto, Canada) in 10×SSC. The RNA was cross-linked to the membrane using a UV crosslinker (PDI Bioscience, Toronto, Canada) before hybridization. Specific probes were generated by labeling cDNA fragments with [−32P]dCTP (NEN) using a random primed DNA labeling kit (Boehringer Mannheim, Laval, Canada). The cDNA probe for GADD153 (no. AA627477) was obtained from Genome Systems (St Louis, Mo.). The cDNA probe used for GRP78 is a full length cDNA clone that has been described previously (4). After overnight hybridization at 43° C., the membranes were washed as described by the manufacturer, exposed to x-ray film, and subjected to autoradiography.

[7] = Solubility of cystathionine in water; assay type: physicochemical
[8] = Urinary excretion of cystathionine in mice; assay type: in vivo, mouse

Compound	reduction of total cell death ([1]; thapsagargin 1 uM)	protection against cell death induced by thapsagargin [2]	protection against cell death induced by tunicamycin [2]	reduction in cell death (LDH release) ([3]; 293AD cells, tunicamycin 10 μg/ml 18 hr, 24 hr pre-treatment PPG 5 mM or cystathionine 1 mM, p<0.0001) [fold]	floating dead cells (phase-contrast) ([3]; tunicamycin 18 hr after PPG or cystathionine pre-treatment)	protection against tunicamycin-induced cell death compared with 293AD cells [4]	reduction in tunicamycin induced cell death (LDH release) [5] [fold]	expression of Grp78, Grp94 and GADD15 in control cells ([6]; PPG 5 mM or cystathionine 5 mM, no tunicamycin)	scale of induction of Grp78, Grp94 and GADD153 in the presence of tunicamycin ([6]; tunicamycin 5 and 10 μg/ml)	cell death in cystathionine control ([1]; cystathionine 1 mM alone)	protection against thapsagargin induced cell death (LDH release) ([1]; cystathionine 1 mM, thapsagargin 1 uM)	solubility in water [7]	excretion in urine [8]
COC(=O)C[C@H](NC(=O)[C@H](C)NC(=O)[C@@H](NC(=O)OCc1ccccc1)C(C)C)C(=O)CF [Z-VAD-FMK] (Cbz-Val-Ala-Asp(OMe)-CH2F)	approximately 20%	only modest protection	only modest protection										
NC(CSCC[C@@H](N)C(=O)O)C(=O)O (stereo partly drawn) [cystathionine, R—S-(2-Amino-2-carboxyethyl)-L-homocysteine]		much greater protective effects	much greater protective effects	27	No floating dead cells were observed	Essentially identical results	16	Neither PPG nor exogenously added cystathionine induced expression	Nor did either of these treatments significantly alter the scale of induction	No cell death was observed	highly significant protective effects	relatively low solubility in water	rapidly excreted in the urine
